Assays:
solubility in water = format: physicochemical
[1] = solubility in organic solvents; format: physicochemical; details: organic solvent or mixture
mast cells degranulation [2] = assay: in vivo mast cell degranulation induced by substance P in the auricular pinna, systemic subcutaneous pretreatment; set-up: species or system Sprague Dawley rats
Method: • 2 weeks old Sprague […] rats, provided by Charles River from Calco, were locally treated by intradermal injection on the auricular pinna with the compounds in question at the dose of 0.5mg/kg, in a buffered aqueous solution at physiological pH. After 10 minutes a local administration, still by intradermal route, followed, of the substance P (10^-4 M), able to induce a mast cells degranulation response. After 30' from the subtance P administration, the animals were sacrificed and the relative tissue samples (pinna) were taken, for an analysis of the morphological aspect of the mast cells residing in the connectival tissues after fixation and coloration with toluidine blue. The inhibition degree in mast cells degranulation in the tissues of the animals treated with the compounds under question, and compared with those of animals treated only with the physiological degranulation factor (substance P) was considered as a parameter for the biological activity. […] The pharmacologic activity of the compounds under question was also verified under conditions of a systemic subcutaneous administration. In this case the animals were firstly treated with 20 mg/kg of the substances under question and after 30 minutes were exposed to the degranulation stimulus with the substance P (10^-6 M) in the auricular pinna. Then we proceeded as previously described. In Tab.2 the obtained results are reported on an average of 500-800 cells. Tab.2

[3] = test system: Peritoneal mast cells of rat; assay: in vitro degranulation of cultured peritoneal mast cells stimulated with substance P; format: cell-based
Method: Peritoneal mast cells of rat were taken according to the standard methodology described by Lagunoff (1975, Tech. Biochem. Biophys. Morphol. , 2, pp. 289-305).
The cells were then cultured in MEM which 10% fetal calf serum was added to and then incubated in a Haereus^R incubator for 30 minutes.
The derivatives under question at the concentration of 10⁻⁵ M were added to the incubation medium .
At the end of the incubation the physiological degranulation stimulus represented by the substance P (10⁻⁴) was added.
The cells were then centrifugated in order to remove the supernatant formed by the incubation medium and placed onto the slide after coloration with toluidine blue, for the analysis of the morphological aspect at the optical microcope.
Also under these conditions the parameter to be considered was the percentage of degranulated cells after stimulation with the Substance P.

mast cells degranulation [4] = assay: in vivo mast cell degranulation induced by substance P in the auricular pinna, intradermal (local) pretreatment; set-up: species or system Sprague Pawley rats; details: compound 0.5 mg/kg intradermal on the auricular pinna, substance P (10⁻⁴ M) intradermal after 10 minutes, sacrifice 30' later
Method: • 2 weeks old Sprague Pawley rats, provided by Charles River from Calco, were locally treated by intradermal injection on the auricular pinna with the compounds in question at the dose of 0.5mg/kg, in a buffered aqueous solution at physiological pH. After 10 minutes a local administration, still by intradermal route, followed, of the substance P (10⁻⁴ M), able to induce a mast cells degranulation response. After 30' from the subtance P administration, the animals were sacrificed and the relative tissue samples (pinna) were taken, for an analysis of the morphological aspect of the mast cells residing in the connectival tissues after fixation and coloration with toluidine blue. The inhibition degree in mast cells degranulation in the tissues of the animals treated with the compounds under question, and compared with those of animals treated only with the physiological degranulation factor (substance P) was considered as a parameter for the biological activity.

[5] = compound 20 mg/kg subcutaneous, substance P (10⁻⁶ M) in the auricular pinna after 30 minutes, average of 500-800 cells
[6] = compound 10⁻⁵ M in the incubation medium, 30 minutes, then substance P (10⁻⁴)

solubility (solubility in water) [µg/mL] | solubility ([1]; in DMSO) [µg/mL] | Compound | % of cells undergoing degranulation (mast cells degranulation [2]; [5]) [%] | further results
> 10000 | > 10000 | O=C(CC(O)C(=O)NCCO)NCCO (racemic) [(8), N,N'-bis (2-hydroxyethyl)-(+/-)2-hydroxysuccinimide] | 31 | –
< 20000 | < 20000 | O=C(/C=C/C(=O)NCCO)NCCO [(1), N-fumaroylethanolamide] | 28 | % of cells undergoing degranulation [3, 6]: 35%; % of cells undergoing degranulation (mast cells degranulation [4]): 40%; solubility ([1]; in hot ethanol): < 20000 µg/mL
> 10000 | > 10000 | O=C(/C=C/C(=O)N(CCO)CCO)N(CCO)CCO [(2), N,N,N',N'-tetra (2-hydroxyethyl)-fumaroyl-diamide] | 32 | % of cells undergoing degranulation [3, 6]: 30%; solubility ([1]; in hot ethanol): > 10000 µg/mL
– | – | O=C(CCCCCCCC(=O)NCCO)NCCO [(3), N,N'-bis-(2-hydroxyethyl)-nonandiamide] | 30 | % of cells undergoing degranulation [3, 6]: 30%; % of cells undergoing degranulation (mast cells degranulation [4]): 30%; solubility ([1]; solvent not stated): > 10000 µg/mL
– | > 10000 | O=C(CCC(=O)NCCO)NCCO [(4), N,N'-bis-(2-hydroxyethyl)-succinamide] | 32 | % of cells undergoing degranulation [3, 6]: 35%
> 10000 | > 10000 | O=C(NCCO)C(=O)NCCO [(5), N,N'-bis(2-hydroxyethyl)-oxalyldiamide] | 45.5 | –
– | > 10000 | O=C(/C=C/CCCCCCCCC(=O)NCCO)NCCO [(6), N,N'-bis (2-hydroxyethyl)trans-2-dodecendiamide] | 33.6 | solubility (solubility in water; at 95 °C): > 10000 µg/mL; solubility ([1]; in ethanol): > 10000 µg/mL
> 10000 | > 5000 | O=C(CC(=O)NCCO)NCCO [(7), N,N' -(2-hydroxyethyl)-malondiamide] | 35 | solubility ([1]; in ethanol): > 10000 µg/mL
> 10000 | > 10000 | O=C(NCCO)[C@H](O)[C@@H](O)C(=O)NCCO [(9), (R,R)-(+) 2,3-dihydroxy-N,N'-bis (2-hydroxyethyl)-succinamide] | 32 | –
> 10000 | > 10000 | CC(O)CNC(=O)/C=C/C(=O)NCC(C)O (stereo not shown) [(10), N,N'-bis (2-hydroxypropyl)-fumaroyldiamide] | 38 | –
> 10000 | > 10000 | O=C(NCCO)c1cc(=O)c2c(OCC(O)COc3cccc4oc(C(=O)NCCO)cc(=O)c34)cccc2o1 [(11), N,N'-bis (2-hydroxyethyl)-cromoglycholyldiamide] | 28.6 | –
> 10000 | > 10000 | NC(CC(=O)NCCO)C(=O)NCCO (stereo not shown) [(12), N,N'-bis (2-hydroxyethyl)-aspartyldiamide] | 30 | –
> 10000 | – | O=C(NCCO)c1ccccc1C(=O)NCCO [(13), N,N' -bis (2-hydroxyethyl)-phthaloyldiamide] | 35.5 | solubility ([1]; in ethanol): > 10000 µg/mL
> 10000 | > 10000 | O=C(/C=C/C=C/C(=O)NCCO)NCCO [(14), N,N'-bis (2-hydroxyethyl)-trans,trans-muconoyldiamide] | 40.2 | –
> 10000 | > 10000 | O=C(CCCC(=O)NCCO)NCCO [(15), N,N'-bis-(2-hydroxyethyl)-glutaroyldiamide] | 30 | –
– | – | CSCC[C@H](NC(=O)[C@H](CC(C)C)NC(=O)CNC(=O)[C@H](Cc1ccccc1)NC(=O)[C@H](Cc1ccccc1)NC(=O)[C@H](CCC(N)=O)NC(=O)[C@H](CCC(N)=O)NC(=O)[C@@H]1CCCN1C(=O)[C@H](CCCCN)NC(=O)[C@@H]1CCCN1C(=O)[C@@H](N)CCCNC(=N)N)C(N)=O [substance P, reference compound] | – | % of cells undergoing degranulation ([3]; substance P (10⁻⁴) alone): 96%; % of cells undergoing degranulation (mast cells degranulation [2]; substance P (10⁻⁶ M) in the auricular pinna alone, no pretreatment): 92%
